Patent US20240216335A1, “COMPOSITION FOR INCREASING LEUKOCYTES AND/OR BASOPHILS” (SUNTORY HOLDINGS LIMITED, priority 2021, published 2024)

Tests used:
[1] = system: IL-6, IL-12p40, IL-1β, and IL-10; conditions: absence of the TLR ligand, ergothioneine concentration 0 or 10 mM; cited from earlier work
[2] = system: blood leukocytes and basophils; experiment: Study on evaluation of blood leukocyte count and basophil count in humans (placebo-controlled, randomized, double-blind, parallel-group); format: in vivo; conditions: one capsule with 20 mg L-ergothioneine per day orally for four weeks, week 4 vs pre-testing, compared with control food group
Description: In order to evaluate the influence of supplements containing ergothioneine on blood leukocyte count and basophil count in humans, a placebo-controlled, randomized, double-blind, parallel-group study was conducted on subjects including male and female adults (46 subjects in a test food group; 46 subjects in a control food group; 92 subjects in total). In this study, one capsule containing 20 mg ergothioneine (test food) or one capsule not containing ergothioneine (control food) was fed per day for four weeks. The blood leukocyte count and basophil count in each subject were measured for pre-testing before starting the study (before starting ingestion of the test food or control food). After ingestion of the test food or control food for four weeks, the blood leukocyte count and basophil count in each subject were measured again (testing on week 4). […] Specifically, the amount of change in the test food group at the time of testing on week 4 was determined for the test food group by subtracting the blood leukocyte count (average) at the time of pre-testing from the blood leukocyte count (average) at the time of testing on week 4. Similarly, the amount of change at the time of testing on week 4 was determined for the control food group by subtracting the blood leukocyte count (average) at the time of pre-testing from the blood leukocyte count (average) at the time of testing on week 4. […]

[3] = molecular target: T1, recombinant human epidermal growth factor receptor (EGFR) tyrosine kinase (Homo sapiens, UniProt P00533); experiment: Evaluation of activity to inhibit substrate binding of EGFR tyrosine kinase ([32P]Poly(Glu:Tyr) formation, Eurofins Panlabs); format: biochemical; conditions: 100 or 1000 μM L-ergothioneine, HEPES buffer pH 7.4, 37° C., 10 μM ATP, 0.2 mg/mL Poly(Glu:Tyr)
T1 construct: host or cells: insect cells
Description: The study was commissioned to Eurofins Panlabs. The study was performed using recombinant human epidermal growth factor receptor (EGFR) tyrosine kinase expressed in insect cells. First, epidermal growth factor receptor (EGFR) tyrosine kinase (0.134 μg/mL) was incubated in HEPES buffer (pH 7.4) with 100 or 1000 μM L-ergothioneine at 37° C. for 15 minutes. Then, 0.2 mg/mL Poly(Glu:Tyr), 10 μM ATP, and 0.25 μCi [γ^32P] ATP were added. Thereby, an enzymatic reaction was initiated. After incubating at 37° ° C. for 30 minutes, 3% H3PO4 was added to terminate the reaction. Lastly, the activity of ergothioneine to inhibit substrate binding was evaluated using the amount of [^32P]Poly(Glu:Tyr) formed in the reaction as an index.

[4] = mice orally administered with ergothioneine vs mice not administered; cited from earlier work

T1 sequence (P00533 25-1210): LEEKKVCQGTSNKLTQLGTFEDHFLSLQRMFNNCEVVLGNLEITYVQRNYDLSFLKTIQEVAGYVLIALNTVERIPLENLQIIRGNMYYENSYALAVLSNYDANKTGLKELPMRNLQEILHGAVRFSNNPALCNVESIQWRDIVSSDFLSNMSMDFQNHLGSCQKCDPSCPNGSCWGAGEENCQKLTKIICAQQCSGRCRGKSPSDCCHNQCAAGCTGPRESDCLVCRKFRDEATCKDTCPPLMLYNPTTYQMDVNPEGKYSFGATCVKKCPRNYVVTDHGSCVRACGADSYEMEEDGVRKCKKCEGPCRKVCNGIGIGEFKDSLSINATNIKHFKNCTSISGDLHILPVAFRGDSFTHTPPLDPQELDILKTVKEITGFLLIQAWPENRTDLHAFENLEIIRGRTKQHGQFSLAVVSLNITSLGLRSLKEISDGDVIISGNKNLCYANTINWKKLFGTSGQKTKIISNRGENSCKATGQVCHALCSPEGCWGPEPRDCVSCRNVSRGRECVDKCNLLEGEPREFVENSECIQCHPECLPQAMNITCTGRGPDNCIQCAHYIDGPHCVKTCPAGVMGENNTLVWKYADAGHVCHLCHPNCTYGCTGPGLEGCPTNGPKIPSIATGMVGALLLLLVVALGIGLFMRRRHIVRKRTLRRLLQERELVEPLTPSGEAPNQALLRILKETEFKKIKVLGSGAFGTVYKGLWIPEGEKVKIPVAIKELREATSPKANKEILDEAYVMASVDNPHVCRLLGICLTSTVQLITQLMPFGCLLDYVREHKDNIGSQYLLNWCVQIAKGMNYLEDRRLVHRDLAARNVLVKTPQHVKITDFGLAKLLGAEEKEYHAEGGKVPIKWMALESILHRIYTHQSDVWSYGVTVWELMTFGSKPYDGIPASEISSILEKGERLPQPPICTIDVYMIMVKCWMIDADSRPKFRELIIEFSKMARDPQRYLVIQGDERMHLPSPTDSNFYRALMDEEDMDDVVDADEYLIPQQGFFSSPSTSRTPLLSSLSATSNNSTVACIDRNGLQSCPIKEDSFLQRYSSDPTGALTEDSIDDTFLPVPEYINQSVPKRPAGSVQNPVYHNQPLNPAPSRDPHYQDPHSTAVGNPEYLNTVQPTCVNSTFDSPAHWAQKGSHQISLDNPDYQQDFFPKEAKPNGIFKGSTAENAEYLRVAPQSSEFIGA

Question: Which “detection of IL-6, IL-12p40, IL-1β, and IL-10” value [1] does the source give for `C[N+](C)(C)[C@@H](Cc1c[nH]c(=S)[nH]1)C(=O)[O-]` [L-ergothioneine] here?
Answer: none of IL-6, IL-12p40, IL-1β, and IL-10 was detected

Question: What about the “amount of change in blood basophil count (Δ in basophils (%))” value [2] of the same compound?
Answer: significantly increased

Question: What about the “amount of change in blood leukocyte count (Δ in leukocytes (cells/μL))” value [2] of the same compound?
Answer: significantly increased

Question: And the “activity to inhibit substrate binding of epidermal growth factor receptor (EGFR) tyrosine kinase” value [3]?
Answer: showed an activity to inhibit substrate binding

Question: And the peritesticular fat weight [4]?
Answer: lower

Question: And the “triglyceride (neutral fat) level in plasma” value [4]?
Answer: lower
